# Reference: patent US10149887B2, “Peptides and peptidomimetics in combination with t cell activating and/or checkpoint inhibiting agents for cancer treatment” (CanBas Co., Ltd., priority 2015, dated 2018)
# Square brackets hold non-standard residues; d marks the D form. Peptide text beside a SMILES is read from it. dPhe(F5) = N[C@H](Cc1c(F)c(F)c(F)c(F)c1F)C(=O)O; dBpa = N[C@H](Cc1ccc(C(=O)c2ccccc2)cc1)C(=O)O; dCha = N[C@H](CC1CCCCC1)C(=O)O
# Tests used:
# [1] = system: MIAPaCa2 human pancreatic carcinoma cells; assay: MIAPaCa2 subcutaneous xenograft in scid mice; assay type: in vivo, mouse
# Protocol: Day0 indicates treatment initiation. Mean tumor sizes with standard deviation for each treatment group are indicated on the Y-axis and the number of days following treatment initiation are indicated on the X-axis.
# To study in vivo efficacy of the compounds, MIAPaCa2 human pancreatic carcinoma cells were implanted subcutaneously in scid mice. The treatment was initiated when the size of the primary tumor became 0.1 cm3 (Day0) or larger, e.g., 7 or 8 mm in diameter. CDDP (3 mg/kg) and CBP 501 (10 or 40 mg/kg) were intra-peritoneally administered alone or in combination. Tumor sizes were measured using calipers three times a week, and volumes were calculated using the formula: weight (mg)=[width (mm)2×length (mm)]/2. Mean tumor sizes for each treatment group are plotted (n=4) against the days after the start of treatment (FIG. 10).
# calreticulin = assay: Cell surface calreticulin exposure in CT26WT cells (FACS); assay type: cell-based, murine; conditions: 10-20 uM CDDP with 0.5 μM CBP501, 45 min
# Protocol: Two days later, the cells were collected and analyzed by FACS with specific calreticulin antibody and propidium iodide (n=3). Samples were compared by student's t-test. *P<0.05 **P<0.01, compared with untreated cells, and ^†P<0.05, ^††P<0.01, compared with the corresponding CDDP alone.
# After changing with fresh drug-free medium, cells were incubated for 24, 48, or 72 hours for Immunoblotting analysis of phospho-eIF2-alpha, for calreticulin analysis by FACS, or for HMGB1 ELISA.
# Cells were collected and washed with PBS, followed by fixation with PBS containing 0.25% PFA for 5 minutes. The fixed cells were washed twice with ice-cold PBS and treated on ice with anti-calreticulin antibody (abcam) diluted with PBS containing 2% FBS (1/200) for 30 minutes. The primary antibody were removed with twice PBS containing 2% FBS wash and treated with alexa488-condjugated secondary antibody diluted with PBS containing 2% FBS (1/500) for 30 minutes at RT. The secondary antibody were removed with twice PBS and treated on ice with propidium iodide (1 ug/ml) for more than 5 minutes, followed by FACS analysis using FACSCalibur.
# [2] = Human serum treatment analysis (residual G2 checkpoint abrogating activity); assay type: in vitro ADME; conditions: 37 degrees
# Protocol: Serum analysis was performed to determine the stability of peptides in mouse and human serum. Briefly, peptides (10 mM or 2.5 mM) were incubated with freshly prepared human serum at 37 degrees for 1 hr. […] Jurkat cells were treated with the serum with or without peptides and bleomycin (40 μg/ml) and incubated for 24 hr. The population of G2 phase cells was determined by flow cytometry as previously described. The residual G2 checkpoint abrogating activity of serum treated peptides were determined by comparing the % G2 cells of the treated serum and the standard curve produced with medium treated peptides, bleomycin and Jurkat cells (Table 5A).
structure (smiles),measurement,setting,value
"N=C(N)NCCC[C@@H](NC(=O)[C@@H](CCCNC(=N)N)NC(=O)[C@@H](CCC(N)=O)NC(=O)[C@@H](CCCNC(=N)N)NC(=O)[C@@H](CCCNC(=N)N)NC(=O)[C@@H](CCCNC(=N)N)NC(=O)[C@@H](CC1CCCCC1)NC(=O)[C@@H](Cc1c(F)c(F)c(F)c(F)c1F)NC(=O)[C@@H](CO)NC(=O)[C@@H](Cc1c[nH]c2ccccc12)NC(=O)[C@@H](CO)NC(=O)[C@H](N)Cc1ccc(C(=O)c2ccccc2)cc1)C(=O)O [CBP501, (d-Bpa)(d-Ser)(d-Trp)(d-Ser)(d-Phe-2,3,4,5,6-F)(d-Cha)(d-Arg)(d-Arg)(d-Arg)(d-Gln)(d-Arg)(d-Arg)] (H-[dBpa][dS][dW][dS][dPhe(F5)][dCha][dR][dR][dR][dQ][dR][dR]-OH; N-terminus and C-terminus assumed)","Tumor growth, CBP501 treatment alone",[1]; CBP501 10 or 40 mg/kg ip,suppresses the growth of human pancreatic cancer cell in vivo
same,Anti-tumor activity of cisplatin in combination with CBP501,[1]; CDDP 3 mg/kg and CBP501 10 or 40 mg/kg ip,increased the anti-tumor activity of cisplatin
same,Calreticulin exposure to the cell surface,calreticulin,Positive effect
same,Residual activity of peptide after 1 hr human serum treatment,[2],>50% of original
